According to patent publication US20250367209A1 (SOUTHERN RESEARCH INSTITUTE, priority 2022, published 2025):
Entries after “also recorded” stand apart in the source; their conditions may differ.

What was measured:
Tau, Fyn = test: Western blot of Tau, Fyn and GAPDH levels in neurons; format: cell-based, rat; details: 15 μM, 24 hours
Description: Like before (Rush, et al. (2020) Neurobiol Dis 134, 104668), at DIV13, neurons were treated with 15 μM compound no. 69 or Vehicle. 24 hours later, cells were harvested in lysis buffer (50 mM Tris, 150 mM NaCl, 5 mM EDTA, 0.1% SDS, 0.1% Triton-X-100, and 0.5% sodium deoxycholate) and centrifuged to remove cellular debris. Samples were diluted in LDS and reducing agent and heated at 70° C. for 10 minutes. Samples were run on 4-12% bis-tris gels in MOPS buffer with 5 μg protein per well, determined by a Bradford assay, then transferred to a PDVF membrane. Membrane was blocked for 1 hour in 50% Odysey blocking buffer then probed overnight with Fyn3 (1:1000) antibody at 4° C. Membrane was washed 3× in TBST, then incubated for 1 hour at RT in IRDye 700 or 800 conjugated secondary and scanned on an Odyssey Scanner. Images were quantified in ImageJ. After probing for GAPDH (1:5,000), the blot was stripped with Restore PLUS Western Blot Sripping Buffer for 30 minutes at room temperature, washed in TBST, and probed for DAKO Tau (1:10,000).

FynSH3 = FynSH3 (Homo sapiens (Human), UniProt P06241); test: Isothermal titration calorimetry, FynSH3; format: binding
Sequence of FynSH3 (P06241 82-143): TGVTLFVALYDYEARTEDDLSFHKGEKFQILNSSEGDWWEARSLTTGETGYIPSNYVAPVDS
Excerpt: Human Fyn-SH3 domain with GST-tag at the N-terminus and a Strep-tag II ([…]) at the C-terminus (GST-Fyn-SH3-Strep) was cloned into pPR-IBA1 vector (IBA Lifesciences) (Cochran, et al. (2014) J. Biomol. Screen. 19, 1338-1349). Codon-optimized human 4R2N Tau for E. coli expression with a Strep-tag II at the C-terminus (His-Tau-Strep) was cloned into pET-28a(+) vector (Novagen). The constructs were transformed into E. coli BL-21(DE3) competent cells (Novagen). For GST-Fyn-SH3-Strep purification, a single colony was inoculated in Luria-Bertani (LB) broth at 37° C. overnight. 10 mL cell culture was added into 500 mL LB medium and cultured at 37° C. 0.5 mM Isopropyl β-D-1-thiogalactopyranoside (IPTG) was added into the culture when OD600 reached 0.7. Cells were further cultured at 25° C. for 4 hours and harvested. Cell pellet was resuspended in lysis buffer (20 mM Tris pH 7.9, 300 mM NaCl, 1 mM TCEP) with 1 tablet of EDTA-free protease inhibitors (ThermoFisher) and 1 mg/ml lysozyme. Cells were disrupted by sonication and debris was removed by centrifugation at 9500 rpm for 1 hour. […]
Purified full-length Tau and FynSH3 were dialyzed into 20 mM Tris and 150 mM NaCl, pH 8.0 with Slide-A-Lyzer G2 Dialysis Cassettes with 10K MWCO (ThermoFisher #87729). […] Protein concentrations were measured on a Nanodrop2000 (ThermoFisher) based on absorbance at 280 nm. […]

Tau-SrcSH3 interaction = Tau-SrcSH3 interaction (Homo sapiens (Human), UniProt P10636); test: Tau-Flag PLA, Tau-SrcSH3; format: cell-based; details: 15 μM, HEK-293 cells
Sequence of Tau-SrcSH3 interaction (P10636 other isoform, or with tags, fused parts or gaps): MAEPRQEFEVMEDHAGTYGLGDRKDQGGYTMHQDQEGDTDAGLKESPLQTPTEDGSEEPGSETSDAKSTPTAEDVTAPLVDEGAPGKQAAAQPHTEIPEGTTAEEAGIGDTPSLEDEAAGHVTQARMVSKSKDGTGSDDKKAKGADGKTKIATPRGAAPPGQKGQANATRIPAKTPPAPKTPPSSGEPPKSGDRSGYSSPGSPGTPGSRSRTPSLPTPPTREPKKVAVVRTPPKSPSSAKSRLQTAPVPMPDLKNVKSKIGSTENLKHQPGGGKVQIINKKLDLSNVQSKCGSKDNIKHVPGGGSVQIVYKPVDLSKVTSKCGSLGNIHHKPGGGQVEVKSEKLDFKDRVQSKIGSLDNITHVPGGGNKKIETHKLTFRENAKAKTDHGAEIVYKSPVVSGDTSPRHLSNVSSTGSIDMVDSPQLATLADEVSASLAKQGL
Description: (§1) Tau-Flag PLA for Tau-SH3 interactions: To clone the SH3 constructs, a C-terminal Flag tag was added to the Tau construct using PCR, then the Tau sequence was replaced with the desired SH3 domain using In-Fusion HD cloning kit (Takara Bio). Next, an N-terminal GST tag was added to help expression using In-Fusion, resulting in GST-SH3-Flag plasmids. As a negative control, restriction enzymes were used to remove the FynSH3 from the FynSH3 construct, resulting in GST-Flag. All sequences were confirmed with Sanger sequencing, and expression in HEK-293 cells was verified by western blot and immunocytochemistry. Plating and experimental timeline was the same as above. Cells were transfected with 125 ng of Tau-mKate2 and 500 ng SH3 plasmid with 1.5 μL Fugene. compound no. 69 was applied to final concentration 15 μM. For Tau-SH3 PLA, we used Dako Tau (1:1000) and Flag (1:1000) primary antibodies.

Tau-LckSH3 interaction = Tau-LckSH3 interaction (Homo sapiens (Human), UniProt P10636); test: Tau-Flag PLA, Tau-LckSH3; format: cell-based; details: 15 μM, HEK-293 cells
Sequence of Tau-LckSH3 interaction (P10636 other isoform, or with tags, fused parts or gaps): as above
Description: as §1

Tau-BIN1SH3 interaction = Tau-BIN1SH3 interaction (Homo sapiens (Human), UniProt P10636); test: Tau-Flag PLA, Tau-BIN1SH3; format: cell-based; details: 15 μM, HEK-293 cells
Sequence of Tau-BIN1SH3 interaction (P10636 other isoform, or with tags, fused parts or gaps): as above
Description: as §1

[1] = test system: endogenous Tau-tubulin interaction; test: Tau-Tubulin PLA in HEK-293 cells; format: cell-based, human; details: 15 μM, 24 hours, untransfected HEK-293 cells
Description: Tau-Tubulin PLA: Untransfected HEK-293 cells were used to measure endogenous Tau-tubulin interaction. Cells were grown for 48 hours before applying 15 µM compound no. 69 for 24 hours. Cells were fixed and PLA was run as above except with Dako Tau (1:1000) and α-tubulin (1:2000) primary antibodies.

## O=C(CN1CCOc2ccccc21)Nc1nnc(-c2ccccn2)[nH]1 [compound no. 69]
Tau, Fyn
  Tau, Fyn (and GAPDH) levels in primary neurons: did not lower Tau or Fyn levels; also recorded: does not reduce Tau, Fyn, or GAPDH levels
FynSH3
  binding to FynSH3, ITC: did not bind FynSH3
Tau-SrcSH3 interaction
  Tau-SrcSH3 interaction, Tau-Flag PLA: slightly but insignificantly inhibited; also recorded: does not inhibit Tau-SrcSH3 interaction
Tau-LckSH3 interaction
  Tau-LckSH3 interaction, Tau-Flag PLA: strongly inhibited; also recorded: inhibits Tau-LckSH3 interaction
Tau-BIN1SH3 interaction
  Tau-BIN1SH3 interaction, Tau-Flag PLA: moderately inhibited; also recorded: inhibits Tau-BIN1SH3 interaction
[1]
  Tau-tubulin interaction, PLA: did not inhibit Tau-tubulin binding; also recorded: does not inhibit Tau-tubulin interaction
